Where two headings read alike, the source gives them in different places.
Key:
[1] = test system: Luciferase gene under the control of the ARE-element of the gene AKR1C2 (KeratinoSens cell line); assay: KeratinoSens assay for skin sensitization: luciferase gene induction; details: for Concentration for 1.5-fold gene induction (EC 1.5 in μM): 48 h, n.i. = no induction above threshold of 1.5; for Imax (fold maximal gene induction): 48 h incubation, 0.98 to 2000 μM, vs DMSO controls
Method: (§1) Sensitization is measured by the commercially-available and universally-accepted KeratinoSens™ test, which compares the potential skin sensitization risk of chemicals.
(§2) KeratinoSens cells were grown for 24 h in 96-well plates. The medium was then replaced with medium containing the test chemical and the solvent dimethylsulfoxide (DMSO) at a final level of 1%. Each compound was tested at 12 binary dilutions in the range from 0.98 to 2000 μM. Cells were incubated for 48 h with the test agents, and then luciferase activity and cytotoxicity were determined. This full procedure was repeated three times for each chemical. For each chemical in each repetition and at each concentration, the gene induction compared to DMSO controls and the wells with statistically significant induction over the threshold of 1.5 (i.e. 50% enhanced gene activity) were determined. Furthermore, the maximal fold-induction (Imax) and the EC1.5 value (concentration in μM for induction above the threshold) were calculated.
(§3) Compounds were tested using the commercial KeratinoSens™ assay for skin sensitization.

KeratinoSens cells = assay: KeratinoSens assay: cytotoxicity / cellular viability; details: 48 h
Method: KeratinoSens cells were grown for 24 h in 96-well plates. The medium was then replaced with medium containing the test chemical and the solvent dimethylsulfoxide (DMSO) at a final level of 1%. Each compound was tested at 12 binary dilutions in the range from 0.98 to 2000 μM. Cells were incubated for 48 h with the test agents, and then luciferase activity and cytotoxicity were determined. This full procedure was repeated three times for each chemical.
as §3

[2] = test system: Luciferase gene under the control of the ARE-element of the gene AKR1C2 (KeratinoSens cell line)
Method: as §1, §2, §3

[3] = biological target: T1, test peptide Cor1C-420 (Ac-NKKCDLF) (Homo sapiens, UniProt Q9ULV4, I423F); assay: Peptide reactivity assay for skin sensitization (similar to DPRA), LC-MS; type: biochemical; details: 37° C., 1 mM test chemical, 0.1 mM peptide
T1 construct: purchased Genscript Inc., Piscataway, N.J., USA
Method: A second method to determine allergenic potential of chemicals is the DPRA direct peptide assay (OECD TG 442c). It is based on the fact that allergenic chemicals must react with a peptide/protein in order to be immunogenic.
A peptide reactivity assay (A. Natsch, H. Gfeller, Toxicol. Sci 2008, 106, 464-478) was conducted similarly to the DPRA assay: The test chemicals were dissolved to a final concentration of 4 mM in acetonitrile and 250 μl of this solution were added to 2 ml HPLC vials. The test peptide Cor1C-420 with the sequence Ac-NKKCDLF (Genscript Inc., Piscataway, N.J., USA), was dissolved at 0.133 mM in 20 mM phosphate buffer at pH 7.5, and 750 μl of this solution were added to each test vial (final concentrations: 1 mM of test chemical and 0.1 mM of peptide in 25% acetonitrile; ratio 1:10 as in the DPRA assay). The samples were incubated for 1-24 h at 37° C. and at regular intervals they were analysed by LC-MS analysis on a VELOS PRO Mass spectrometer (Thermo […], San Jose, Calif., U.S.A.) operated in the ESl(+) mode. The temperature of the capillary was kept at 275° C. Mass spectra were recorded from 200-2000 amu. […]
Two endpoints are measured with this assay: • a) Depletion of the parent peptide. The mass of the protonated parent peptide is measured and the corresponding peak integrated (% depletion; FIG. 2). […]

Row | Compound | Concentration for 1.5-fold gene induction (EC 1.5 in μM) ([1]; KeratinoSens) | Imax (fold maximal gene induction) ([1]; KeratinoSens) [fold] | Concentration for 50% Cytotoxicity (KeratinoSens cells) [µM] | concentration at which the luciferase gene is clearly induced [2] [µM] | maximal gene induction over control [2] [fold] | sensitization rating by the KeratinoSens assay [2] | sensitization rating by the KeratinoSens assay [1] | induction of luciferase activity above the 1.5-fold threshold ([1]; KeratinoSens) | levels of peptide adducts, fold lower as compared to Damascone delta ([3]; after 1 h) [fold] | peptide depletion ([3]; over the 24 h experiment)
1 | CC=C(C)C(=O)C1CCC=CC1C (stereo not drawn) [Example 8, (2E,1′R*,2′R*)-2-Methyl-1-(2′-methylcyclohex-3′-en-1′-yl)but-2-en-1-one] | n.i. | 1.35 | 316.4 |  |  |  |  |  |  | 
2 | C/C=C/C(=O)C1C(C)C=CCC1(C)C (stereo not shown) [Damascone delta™, (2E)-1-(2′,6′,6′-trimethylcyclohex-3′-en-1′-yl)but-2-en-1-one] |  |  |  | 4 | 8.7 | significantly sensitizing compound |  |  |  | 
3 | C/C=C(\C)C(=O)[C@@H]1[C@@H](C)C=CCC1(C)C (relative stereo) [Example 1, (2E,1′R*,2′S*)-2-Methyl-(2′,6′,6′-trimethylcyclohex-3′-en-1′-yl)but-2-en-1-one] | n.i. | 1.09 | 90.3 |  |  |  | non-sensitizing | did not induce luciferase activity above the 1.5-fold threshold | 3200 | no significant peptide depletion

Source: patent publication US10570080B2, “Perfume ketones” (Givaudan, S.A., priority 2015, dated 2020)
